This note sets out measurements from BindingDB's records for doi:10.1021/jm0310479 (Roche Diagnostics, 2004).

Molecules are shown by their SMILES. pIC50: −log10 of the molar value. Structures can show the parent of a compound that is named as a salt.

For orientation: pIC50 means the IC50 on a negative log10 scale, so that one unit is a factor of ten. Read a low pIC50 as a high IC50.

Experiment [1] addresses RAC-alpha serine/threonine-protein kinase (Homo sapiens, UniProt P31749). The experiment is described as follows: PKB In Vitro Kinase Assay. As to conditions: pH 7.5; 22 °C. As to the method:
An ELISA-based assay has been developed for the serine/threonine kinase, PKB-alpha. The assay utilizes an N-terminally biotinylated substrate peptide. When this substrate is phosphorylated by the kinase, the product is recognized by a substrate/sequence-specific antibody, which binds to particular phosphorylated serine residues. […] Calculation of IC50 values was performed with ActivityBase.

The target in experiment [2] is cAMP-dependent protein kinase catalytic subunit alpha (Bos taurus, UniProt P00517). The experiment is described as follows: Fluorescence Polarization-based Assay. The settings on record: pH 7.2; 22 °C. The procedure: In this assay, a fluorescent phosphopeptide tracer and the nonfluorescent phosphopeptides generated during a PKA reaction compete for binding to an antiphosphoserine antibody. In a reaction mixture containing phosphopeptide product, the fluorescent tracer is displaced from the antibody and the emission signal becomes depolarized. Enzymatic activity was measured by detection of fluorescence polarity in a Victor 2 reader (Wallac, Finland). […] Calculation of IC50 values was performed with ActivityBase.
On the technique in general: Fluorescence polarisation rises when a labelled molecule tumbles more slowly, as on binding a larger partner.

Chain of RAC-alpha serine/threonine-protein kinase (P31749 whole entry): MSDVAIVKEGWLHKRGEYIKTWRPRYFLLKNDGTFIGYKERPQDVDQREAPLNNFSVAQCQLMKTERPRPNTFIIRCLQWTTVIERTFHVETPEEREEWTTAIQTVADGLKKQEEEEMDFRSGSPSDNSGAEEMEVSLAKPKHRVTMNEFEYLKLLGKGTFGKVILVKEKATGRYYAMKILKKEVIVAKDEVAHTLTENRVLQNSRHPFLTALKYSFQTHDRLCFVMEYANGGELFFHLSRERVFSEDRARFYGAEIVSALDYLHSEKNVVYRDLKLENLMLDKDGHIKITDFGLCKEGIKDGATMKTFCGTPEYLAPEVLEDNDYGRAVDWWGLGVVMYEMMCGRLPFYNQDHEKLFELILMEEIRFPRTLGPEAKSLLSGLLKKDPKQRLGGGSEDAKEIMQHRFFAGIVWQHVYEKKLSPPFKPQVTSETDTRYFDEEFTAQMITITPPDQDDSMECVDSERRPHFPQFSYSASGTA

Turning to `COc1ccc(O)c(C(=O)c2ccc(CO[C@@H]3CCCNC[C@H]3NC(=O)c3ccncc3)cc2)c1F` [N-((3R,4R)-4-{[4-(2-fluoro-6-hydroxy-3-methoxybenzoyl)benzyl]oxy}azepan-3-yl)isonicotinamide dihydrochloride], the pIC50 in experiment [1] was 6.45. As for `COc1ccc(O)c(C(=O)c2ccc(NC[C@@H]3CCCNC[C@H]3NC(=O)c3ccncc3)cc2)c1F` [N-[(3S,4S)-4-[({4-[(2-fluoro-6-hydroxy-3-methoxyphenyl)carbonyl]phenyl}amino)methyl]azepan-3-yl]pyridine-4-carboxamide trihydrochloride], the figures for the negative logarithm of the IC50 (pIC50) in experiment [1] and in experiment [2] were 4.60 and 4.35, respectively.
